Results published in ChEMBL document CHEMBL1201862, “PubChem BioAssay data set” (2004).
The source made the active and inactive calls.

Columns and labels:
[1] = molecular target: T1, Nucleotide-binding oligomerization domain-containing protein 1 (Homo sapiens, UniProt Q9Y239); assay: SAR analysis of NF-kappaB dependent luciferase using DAP as an inducer - Set 2. [Related pubchem assays (depositor defined):AID1566, AID1575, AID1578, AID1579, AID1849, AID1852, AID2264]; type: functional
T1 sequence (Q9Y239 whole entry): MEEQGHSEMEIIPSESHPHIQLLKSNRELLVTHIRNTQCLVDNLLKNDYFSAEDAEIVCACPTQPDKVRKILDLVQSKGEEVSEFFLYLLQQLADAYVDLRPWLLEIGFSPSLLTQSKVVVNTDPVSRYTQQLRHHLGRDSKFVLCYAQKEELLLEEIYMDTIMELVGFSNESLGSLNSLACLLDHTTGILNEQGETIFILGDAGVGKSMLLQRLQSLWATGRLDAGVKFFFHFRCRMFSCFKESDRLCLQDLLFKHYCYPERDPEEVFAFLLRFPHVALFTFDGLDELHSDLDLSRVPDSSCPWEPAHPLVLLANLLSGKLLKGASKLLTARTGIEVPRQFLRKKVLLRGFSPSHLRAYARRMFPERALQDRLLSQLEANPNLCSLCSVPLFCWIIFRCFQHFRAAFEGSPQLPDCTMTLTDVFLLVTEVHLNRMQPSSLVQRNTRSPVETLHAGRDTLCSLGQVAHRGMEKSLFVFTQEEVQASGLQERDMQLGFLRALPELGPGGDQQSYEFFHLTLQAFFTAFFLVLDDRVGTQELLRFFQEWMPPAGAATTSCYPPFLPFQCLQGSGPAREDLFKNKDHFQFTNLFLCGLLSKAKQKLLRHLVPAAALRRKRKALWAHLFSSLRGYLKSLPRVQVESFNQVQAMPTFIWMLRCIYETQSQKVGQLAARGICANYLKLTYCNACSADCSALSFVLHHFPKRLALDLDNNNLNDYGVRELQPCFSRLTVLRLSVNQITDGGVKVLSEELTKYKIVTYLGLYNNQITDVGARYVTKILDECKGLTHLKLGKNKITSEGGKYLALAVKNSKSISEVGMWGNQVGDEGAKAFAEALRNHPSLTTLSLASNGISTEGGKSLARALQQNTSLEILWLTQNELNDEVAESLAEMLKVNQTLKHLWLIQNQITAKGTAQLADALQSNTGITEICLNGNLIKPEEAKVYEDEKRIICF

HEK293 [2] = assay: SAR analysis of compounds that are cytotoxic to HEK293 - Set 2. [Related pubchem assays (depositor defined):AID1575, AID1578, AID1849, AID2001, AID2333, AID2334, AID2335, AID2337, AID2800]; type: functional, cell-based; settings: Homo sapiens
[3] = molecular target: T1, Nucleotide-binding oligomerization domain-containing protein 1; assay: SAR analysis of compounds that inhibit NOD1 - Set 2. [Related pubchem assays (depositor defined):AID1566, AID1575, AID1578, AID1849, AID1852, AID2333, AID2335, AID2798]; type: functional
Streptokinase A = molecular target: T2, Streptokinase A (Streptococcus pyogenes serotype M1, UniProt P10520); assay: S. pyogenes streptokinase expression inhibitors, potency, dose response, plasminogen activation absorbance, OD405 (AID 1914); type: functional, Streptococcus pyogenes M1 GAS;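 further: secreted streptokinase activity via plasminogen activation per viability signal from cell pellet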
T2 sequence (P10520 whole entry): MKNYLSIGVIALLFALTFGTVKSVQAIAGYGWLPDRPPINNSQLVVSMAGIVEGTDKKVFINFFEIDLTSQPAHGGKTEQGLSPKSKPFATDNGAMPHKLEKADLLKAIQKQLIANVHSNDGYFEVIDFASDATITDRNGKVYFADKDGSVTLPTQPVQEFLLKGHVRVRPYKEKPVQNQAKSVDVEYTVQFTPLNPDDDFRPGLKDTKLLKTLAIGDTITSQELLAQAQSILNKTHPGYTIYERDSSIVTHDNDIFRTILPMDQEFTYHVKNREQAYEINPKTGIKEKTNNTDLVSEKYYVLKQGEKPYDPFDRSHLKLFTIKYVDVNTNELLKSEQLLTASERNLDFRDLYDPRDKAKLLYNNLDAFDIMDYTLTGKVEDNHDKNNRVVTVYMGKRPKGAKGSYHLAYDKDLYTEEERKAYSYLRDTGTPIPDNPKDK

[4] = molecular target: T1, Nucleotide-binding oligomerization domain-containing protein 1; assay: SAR analysis of compounds that inhibit NOD1 - Set 3. [Related pubchem assays (depositor defined):AID1566, AID1575, AID1578, AID1849, AID1852, AID2333, AID2335, AID2466]; type: functional
Tumor necrosis factor = Tumor necrosis factor (Homo sapiens, UniProt P01375); assay: TNFa-triggered NF-kB activation inhibitors, SAR follow-up, cell-based, set 3 (AID 2801); type: functional
Tumor necrosis factor, sequence (P01375 whole entry): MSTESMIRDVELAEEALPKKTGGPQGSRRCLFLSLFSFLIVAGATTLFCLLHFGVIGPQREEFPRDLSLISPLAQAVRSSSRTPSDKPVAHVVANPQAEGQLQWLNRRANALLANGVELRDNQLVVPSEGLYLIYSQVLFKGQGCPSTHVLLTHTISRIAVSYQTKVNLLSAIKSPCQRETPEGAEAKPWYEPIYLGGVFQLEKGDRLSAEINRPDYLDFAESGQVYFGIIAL

[5] = tested on: Streptococcus sp. 'group A'; assay: growth inhibition of control SK(-) GAS strain, dose response, counter-screen for streptokinase expression inhibitor project, luminescence, kanamycin, BacTiterGlo, confirmation (AID 1900); type: functional, organism-based
Interleukin-8 [6] = molecular target: T3, Interleukin-8 (Homo sapiens, UniProt P10145); assay: SAR analysis of Tumor necrosis factor alpha (TNF-alpha) induced IL-8 secretion in MCF-7/NOD1 cells - Set 2. [Related pubchem assays (depositor defined):AID1575, AID2250, AID2260]; type: functional, cell-based
T3 sequence (P10145 whole entry): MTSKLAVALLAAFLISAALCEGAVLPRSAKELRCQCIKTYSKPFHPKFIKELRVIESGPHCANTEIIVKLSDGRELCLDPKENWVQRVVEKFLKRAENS

HEK293 [7] = assay: SAR analysis of compounds that are cytotoxic to HEK293 - Set 3. [Related pubchem assays (depositor defined):AID1575, AID1578, AID1848, AID1849, AID2001, AID2333, AID2334, AID2335, AID2337, AID2469]; type: functional, cell-based; settings: Homo sapiens
[8] = molecular target: T4, Nucleotide-binding oligomerization domain-containing protein 2 (Homo sapiens, UniProt Q9HC29); assay: NOD2 inhibitors, SAR follow-up, set 2 (AID 2475); type: functional
T4 sequence (Q9HC29 whole entry, the tested form may be a part): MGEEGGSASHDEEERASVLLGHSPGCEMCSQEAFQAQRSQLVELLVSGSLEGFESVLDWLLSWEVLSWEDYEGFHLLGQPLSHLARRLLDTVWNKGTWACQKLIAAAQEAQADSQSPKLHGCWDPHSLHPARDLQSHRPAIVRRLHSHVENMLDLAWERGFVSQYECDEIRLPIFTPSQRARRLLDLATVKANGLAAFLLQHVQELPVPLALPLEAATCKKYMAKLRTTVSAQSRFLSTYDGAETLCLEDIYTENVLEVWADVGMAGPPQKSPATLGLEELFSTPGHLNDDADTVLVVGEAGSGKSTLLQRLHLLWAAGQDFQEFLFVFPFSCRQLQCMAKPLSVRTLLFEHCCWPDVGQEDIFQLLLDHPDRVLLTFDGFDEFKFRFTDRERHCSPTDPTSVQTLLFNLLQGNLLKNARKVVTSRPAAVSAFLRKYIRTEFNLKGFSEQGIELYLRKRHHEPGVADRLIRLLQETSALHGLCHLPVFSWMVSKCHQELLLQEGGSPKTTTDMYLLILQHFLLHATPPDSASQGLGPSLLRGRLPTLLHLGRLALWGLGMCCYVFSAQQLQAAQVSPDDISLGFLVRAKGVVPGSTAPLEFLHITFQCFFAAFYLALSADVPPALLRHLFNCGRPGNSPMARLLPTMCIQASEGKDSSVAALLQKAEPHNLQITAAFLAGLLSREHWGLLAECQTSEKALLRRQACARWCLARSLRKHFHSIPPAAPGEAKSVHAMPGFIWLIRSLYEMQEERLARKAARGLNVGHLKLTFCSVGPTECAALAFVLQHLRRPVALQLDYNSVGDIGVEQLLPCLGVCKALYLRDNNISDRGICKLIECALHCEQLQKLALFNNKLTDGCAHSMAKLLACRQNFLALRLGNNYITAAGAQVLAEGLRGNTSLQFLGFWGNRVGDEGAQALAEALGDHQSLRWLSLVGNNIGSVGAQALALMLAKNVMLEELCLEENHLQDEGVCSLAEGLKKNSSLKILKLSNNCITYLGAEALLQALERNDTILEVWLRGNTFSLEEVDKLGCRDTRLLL

[9] = molecular target: T4, Nucleotide-binding oligomerization domain-containing protein 2; assay: NOD2 signaling inhibitors, analog potency, SAR follow-up, cell-based, set 3 (AID 2799); type: functional
Streptococcus = assay: Group A Streptococcus viability loss, dose response, counter-screen for streptokinase expression inhibitor project, luminescence, BacTiterGlo (AID 1915); type: functional, organism-based;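 further: potency for reduction of bacterial viability or growth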
Interleukin-8 [10] = molecular target: T3, Interleukin-8; assay: SAR analysis of GM-Tri-DAP induced IL-8 secretion in MCF-7/NOD1 cells - Set 2. [Related pubchem assays (depositor defined):AID1575, AID1578, AID2333]; type: functional, cell-based
[11] = molecular target: T5, Heat shock factor protein 1 (Mus musculus, UniProt P38532); assay: inhibition of MG132-induced HSE-luciferase signal, confirmation, cell-based, NIH3T3, luminescence, dose retest (AID 2382); type: functional;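 further: NIH3T3 fibroblasts with HSF1-driven luciferase reporter stressed by proteasome inhibitor MG132; luminescence from HSF1-driven luciferase expression after 8 hours of MG132 stress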
T5 sequence (P38532 whole entry): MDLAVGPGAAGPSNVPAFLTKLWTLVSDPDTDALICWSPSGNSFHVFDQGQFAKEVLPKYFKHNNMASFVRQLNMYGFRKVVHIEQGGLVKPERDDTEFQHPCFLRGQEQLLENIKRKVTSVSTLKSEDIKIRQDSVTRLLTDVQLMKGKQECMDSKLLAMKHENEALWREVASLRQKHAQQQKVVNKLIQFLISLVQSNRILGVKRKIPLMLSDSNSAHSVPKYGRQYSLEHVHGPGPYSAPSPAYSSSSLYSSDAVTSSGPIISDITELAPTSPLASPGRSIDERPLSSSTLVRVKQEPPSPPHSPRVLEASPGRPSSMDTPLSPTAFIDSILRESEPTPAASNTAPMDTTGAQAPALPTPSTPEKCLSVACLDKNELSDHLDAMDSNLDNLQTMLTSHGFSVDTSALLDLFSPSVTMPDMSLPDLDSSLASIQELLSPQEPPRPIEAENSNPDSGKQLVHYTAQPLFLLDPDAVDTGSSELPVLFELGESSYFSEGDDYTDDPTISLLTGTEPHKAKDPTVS

[12] = molecular target: Intestinal-type alkaline phosphatase (Mus musculus, UniProt P24822); assay: PubChem AID 488785; type: functional
Intestinal-type alkaline phosphatase (Mus musculus, UniProt P24822), sequence (P24822 whole entry): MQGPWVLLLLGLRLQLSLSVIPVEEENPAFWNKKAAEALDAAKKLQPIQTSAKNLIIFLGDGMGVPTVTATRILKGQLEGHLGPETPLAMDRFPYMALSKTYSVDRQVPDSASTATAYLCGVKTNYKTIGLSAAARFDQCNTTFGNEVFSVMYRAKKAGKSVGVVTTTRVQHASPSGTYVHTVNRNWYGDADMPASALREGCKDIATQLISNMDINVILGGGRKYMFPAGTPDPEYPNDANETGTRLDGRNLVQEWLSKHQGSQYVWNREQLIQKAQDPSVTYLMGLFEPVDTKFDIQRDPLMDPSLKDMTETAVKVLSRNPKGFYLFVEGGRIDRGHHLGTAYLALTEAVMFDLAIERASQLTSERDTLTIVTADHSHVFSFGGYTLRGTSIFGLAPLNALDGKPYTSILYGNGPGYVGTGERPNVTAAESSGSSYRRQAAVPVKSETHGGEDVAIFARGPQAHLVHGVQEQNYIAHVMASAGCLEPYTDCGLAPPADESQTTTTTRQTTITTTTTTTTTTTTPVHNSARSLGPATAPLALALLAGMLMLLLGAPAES

[13] = molecular target: T6, Alkaline phosphatase, tissue-nonspecific isozyme (Homo sapiens, UniProt P05186); assay: TNAP enzyme inhibition by screening hits, dose response, selectivity assay for mouse IAP inhibitor project, biochemical, human TNAP, uHTS hits (AID 488906); type: functional
T6 sequence (P05186 whole entry): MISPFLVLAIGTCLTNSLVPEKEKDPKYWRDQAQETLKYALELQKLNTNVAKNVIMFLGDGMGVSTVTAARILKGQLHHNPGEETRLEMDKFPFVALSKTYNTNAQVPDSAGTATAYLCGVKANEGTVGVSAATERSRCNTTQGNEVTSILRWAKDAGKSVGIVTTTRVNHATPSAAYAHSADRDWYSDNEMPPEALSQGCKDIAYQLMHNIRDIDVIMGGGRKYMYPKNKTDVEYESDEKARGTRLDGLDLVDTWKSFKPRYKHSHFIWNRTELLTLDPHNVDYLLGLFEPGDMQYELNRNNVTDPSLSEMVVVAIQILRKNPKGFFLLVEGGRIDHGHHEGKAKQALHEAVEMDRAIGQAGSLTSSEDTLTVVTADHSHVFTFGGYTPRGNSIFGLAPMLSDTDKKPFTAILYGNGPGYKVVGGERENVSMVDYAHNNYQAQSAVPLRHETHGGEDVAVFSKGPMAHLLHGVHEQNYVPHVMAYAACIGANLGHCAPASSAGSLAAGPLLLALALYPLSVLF

[14] = molecular target: Intestinal-type alkaline phosphatase (Homo sapiens, UniProt P09923); assay: inhibition of human intestinal alkaline phosphatase – biochemical, dose response (AID 488876); type: functional
Intestinal-type alkaline phosphatase (Homo sapiens, UniProt P09923), sequence (P09923 whole entry): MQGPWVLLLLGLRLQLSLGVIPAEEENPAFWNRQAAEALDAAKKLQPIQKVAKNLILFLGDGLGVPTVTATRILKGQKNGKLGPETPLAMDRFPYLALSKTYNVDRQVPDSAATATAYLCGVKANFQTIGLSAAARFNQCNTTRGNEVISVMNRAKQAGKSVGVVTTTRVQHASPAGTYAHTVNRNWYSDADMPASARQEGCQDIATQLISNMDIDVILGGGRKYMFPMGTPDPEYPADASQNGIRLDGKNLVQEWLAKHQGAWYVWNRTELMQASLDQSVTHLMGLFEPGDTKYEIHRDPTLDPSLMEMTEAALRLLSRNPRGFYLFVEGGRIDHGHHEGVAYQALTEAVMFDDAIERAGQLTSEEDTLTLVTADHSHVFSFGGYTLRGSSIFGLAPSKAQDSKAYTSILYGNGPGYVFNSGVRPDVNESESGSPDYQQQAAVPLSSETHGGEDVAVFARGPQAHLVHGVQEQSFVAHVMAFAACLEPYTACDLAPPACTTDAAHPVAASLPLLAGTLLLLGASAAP

With `CCCCn1c(SCC(=O)c2ccccc2)nc2c1c(=O)[nH]c(=O)n2C` the IC50 [1] was > 25 µM (inactive), the IC50 (HEK293 [2]) was > 20 µM (inactive) and the IC50 [3] was > 20 µM (inactive). For the same compound, the EC50 (Streptokinase A) was > 150 µM (not active), the IC50 [4] was > 20 µM (inactive) and the IC50 (Tumor necrosis factor) was > 20 µM (inactive). The EC50 [5] was 3.37 µM (active), the IC50 (Interleukin-8 [6]) was > 25 µM (inactive) and the IC50 (HEK293 [7]) was > 20 µM (inactive). The IC50 [8] was > 20 µM (inactive), the IC50 [9] was > 20 µM (inactive) and the EC50 (Streptococcus) was 18.4 µM (active). The IC50 (Interleukin-8 [10]) was > 25 µM (inactive).

`CCn1cc(CN2CCC(C(=O)Nc3cccc(-c4cccc(Cl)c4)c3)CC2)c(C)n1` was tested, and the EC50 [11] was > 195 µM (not active), the IC50 [12] was 12.8 µM (active) and the IC50 [13] was > 100 µM (inactive). For the same compound, the IC50 [14] was > 100 µM (inactive).
